pIC50: −log10 of the molar value.
Legend:
[1] = molecular target: T1, Hepatocyte nuclear factor 4-alpha (Homo sapiens) (UniProt P41235); assay: Selectivity interaction (Reporter gene assay) EUB0002355a HNF4A; parameters: recommended concentration 3 uM
T1 sequence (whole entry): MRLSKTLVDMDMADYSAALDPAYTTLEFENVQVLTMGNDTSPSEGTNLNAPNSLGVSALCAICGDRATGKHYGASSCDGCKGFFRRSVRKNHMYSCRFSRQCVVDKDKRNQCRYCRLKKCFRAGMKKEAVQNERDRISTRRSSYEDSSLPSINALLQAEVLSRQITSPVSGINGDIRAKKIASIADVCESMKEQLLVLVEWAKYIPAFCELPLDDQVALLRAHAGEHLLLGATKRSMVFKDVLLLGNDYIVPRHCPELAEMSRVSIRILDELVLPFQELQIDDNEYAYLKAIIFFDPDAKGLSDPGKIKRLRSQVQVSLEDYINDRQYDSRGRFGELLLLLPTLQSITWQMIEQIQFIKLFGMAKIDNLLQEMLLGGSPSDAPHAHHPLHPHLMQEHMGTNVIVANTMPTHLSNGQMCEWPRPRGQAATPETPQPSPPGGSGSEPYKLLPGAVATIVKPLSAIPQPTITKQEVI

[2] = molecular target: T2, Nuclear receptor subfamily 2 group C member 1 (Homo sapiens) (UniProt P13056); assay: Selectivity interaction (Reporter gene assay) EUB0002355a NR2C1; parameters: recommended concentration 3 uM
T2 sequence (whole entry): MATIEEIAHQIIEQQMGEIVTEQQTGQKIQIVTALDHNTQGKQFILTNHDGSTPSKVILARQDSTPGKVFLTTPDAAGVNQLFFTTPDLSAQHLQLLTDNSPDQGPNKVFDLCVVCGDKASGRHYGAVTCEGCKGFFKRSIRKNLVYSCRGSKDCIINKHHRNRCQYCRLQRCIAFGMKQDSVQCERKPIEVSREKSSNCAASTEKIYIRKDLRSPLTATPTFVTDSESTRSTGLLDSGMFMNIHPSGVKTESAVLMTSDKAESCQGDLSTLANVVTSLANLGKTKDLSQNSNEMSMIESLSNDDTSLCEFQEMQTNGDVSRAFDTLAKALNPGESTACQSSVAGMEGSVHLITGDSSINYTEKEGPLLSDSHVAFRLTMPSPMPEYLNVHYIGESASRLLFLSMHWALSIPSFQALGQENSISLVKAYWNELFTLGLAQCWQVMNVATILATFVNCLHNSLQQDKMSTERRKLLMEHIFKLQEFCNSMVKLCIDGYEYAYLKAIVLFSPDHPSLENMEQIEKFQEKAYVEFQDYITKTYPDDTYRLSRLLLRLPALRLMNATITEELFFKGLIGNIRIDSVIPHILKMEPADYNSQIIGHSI

[3] = molecular target: Nuclear receptor subfamily 2 group E member 1 (Homo sapiens) (UniProt Q9Y466); assay: Selectivity interaction (Reporter gene assay) EUB0002355a NR2E1; parameters: recommended concentration 3 uM
Chain of Nuclear receptor subfamily 2 group E member 1 (Homo sapiens) (Q9Y466 whole entry): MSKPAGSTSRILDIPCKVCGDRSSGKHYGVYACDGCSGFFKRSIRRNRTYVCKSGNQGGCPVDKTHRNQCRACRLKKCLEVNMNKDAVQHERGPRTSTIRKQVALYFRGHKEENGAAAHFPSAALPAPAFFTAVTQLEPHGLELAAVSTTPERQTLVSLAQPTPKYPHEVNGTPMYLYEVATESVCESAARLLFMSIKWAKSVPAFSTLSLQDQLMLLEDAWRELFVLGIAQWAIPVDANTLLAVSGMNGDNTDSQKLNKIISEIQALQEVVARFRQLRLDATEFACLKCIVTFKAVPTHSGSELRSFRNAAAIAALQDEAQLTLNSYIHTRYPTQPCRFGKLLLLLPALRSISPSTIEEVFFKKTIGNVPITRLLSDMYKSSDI

[4] = molecular target: Nuclear receptor subfamily 4immunitygroup A member 1 (Homo sapiens) (UniProt P22736); assay: Selectivity interaction (Reporter gene assay) EUB0002355a NR4A1; parameters: recommended concentration 3 uM
Chain of Nuclear receptor subfamily 4immunitygroup A member 1 (Homo sapiens) (P22736 whole entry): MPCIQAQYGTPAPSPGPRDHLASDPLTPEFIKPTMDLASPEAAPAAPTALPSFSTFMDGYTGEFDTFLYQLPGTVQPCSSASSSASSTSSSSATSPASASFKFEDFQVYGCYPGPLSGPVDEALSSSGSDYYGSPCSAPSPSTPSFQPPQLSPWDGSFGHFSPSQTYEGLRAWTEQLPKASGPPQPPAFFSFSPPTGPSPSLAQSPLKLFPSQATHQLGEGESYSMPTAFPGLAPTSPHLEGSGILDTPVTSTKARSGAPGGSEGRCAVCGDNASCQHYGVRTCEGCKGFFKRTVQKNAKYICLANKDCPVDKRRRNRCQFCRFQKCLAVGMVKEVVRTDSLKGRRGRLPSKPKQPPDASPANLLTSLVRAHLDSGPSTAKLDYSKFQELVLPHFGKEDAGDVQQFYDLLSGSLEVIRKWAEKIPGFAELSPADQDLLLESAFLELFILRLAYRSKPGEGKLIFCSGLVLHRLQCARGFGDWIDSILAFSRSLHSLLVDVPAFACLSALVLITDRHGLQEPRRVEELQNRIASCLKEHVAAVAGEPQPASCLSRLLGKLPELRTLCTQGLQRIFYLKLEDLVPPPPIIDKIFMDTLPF

[5] = molecular target: Steroidogenic factor 1 (Homo sapiens) (UniProt Q13285); assay: Selectivity interaction (Reporter gene assay) EUB0002355a NR5A1; parameters: recommended concentration 3 uM
Chain of Steroidogenic factor 1 (Homo sapiens) (Q13285 whole entry): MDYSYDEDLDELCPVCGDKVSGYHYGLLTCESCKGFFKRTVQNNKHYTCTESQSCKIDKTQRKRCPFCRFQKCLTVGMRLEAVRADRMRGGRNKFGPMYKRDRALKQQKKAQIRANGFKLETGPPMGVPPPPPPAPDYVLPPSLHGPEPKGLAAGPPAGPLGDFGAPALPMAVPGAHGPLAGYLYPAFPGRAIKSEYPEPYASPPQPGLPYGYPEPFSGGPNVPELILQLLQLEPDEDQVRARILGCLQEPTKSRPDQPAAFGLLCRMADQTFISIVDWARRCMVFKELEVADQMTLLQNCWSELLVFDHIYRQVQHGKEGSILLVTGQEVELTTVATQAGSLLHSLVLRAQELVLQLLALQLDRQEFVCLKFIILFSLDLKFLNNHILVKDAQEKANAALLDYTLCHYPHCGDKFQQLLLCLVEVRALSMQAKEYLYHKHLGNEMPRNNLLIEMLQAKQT

[6] = molecular target: T3, Alpha trans-inducing protein (Human alphaherpesvirus 1) (UniProt A0A5J6DW59); assay: Selectivity interaction (Reporter gene assay) EUB0002355a UL48; parameters: recommended concentration 3 uM
T3 sequence (A0A5J6DW59 as listed by the source): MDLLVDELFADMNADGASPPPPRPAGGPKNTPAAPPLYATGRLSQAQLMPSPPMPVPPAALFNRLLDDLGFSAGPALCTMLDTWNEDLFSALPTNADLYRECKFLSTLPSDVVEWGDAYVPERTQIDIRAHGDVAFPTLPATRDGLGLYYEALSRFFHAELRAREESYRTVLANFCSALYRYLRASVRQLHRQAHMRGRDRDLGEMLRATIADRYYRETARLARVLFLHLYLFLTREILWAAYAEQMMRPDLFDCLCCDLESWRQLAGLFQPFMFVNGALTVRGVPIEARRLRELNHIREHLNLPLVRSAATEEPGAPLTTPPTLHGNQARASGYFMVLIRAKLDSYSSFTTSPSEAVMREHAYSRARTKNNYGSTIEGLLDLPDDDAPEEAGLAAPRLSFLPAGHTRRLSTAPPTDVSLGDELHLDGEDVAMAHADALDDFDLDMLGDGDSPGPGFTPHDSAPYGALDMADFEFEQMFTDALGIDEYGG

[7] = molecular target: T4, Retinoic acid receptor RXR-alpha (Homo sapiens) (UniProt P19793); assay: Selectivity interaction (Reporter gene assay) EUB0002355a RXRA; parameters: recommended concentration 3 uM; settings: reference bexarotene 1 uM, Selectivity number of off-targets 0.0, Selectivity number of targets 1.0, Source Knowledge inhouse
T4 sequence (whole entry): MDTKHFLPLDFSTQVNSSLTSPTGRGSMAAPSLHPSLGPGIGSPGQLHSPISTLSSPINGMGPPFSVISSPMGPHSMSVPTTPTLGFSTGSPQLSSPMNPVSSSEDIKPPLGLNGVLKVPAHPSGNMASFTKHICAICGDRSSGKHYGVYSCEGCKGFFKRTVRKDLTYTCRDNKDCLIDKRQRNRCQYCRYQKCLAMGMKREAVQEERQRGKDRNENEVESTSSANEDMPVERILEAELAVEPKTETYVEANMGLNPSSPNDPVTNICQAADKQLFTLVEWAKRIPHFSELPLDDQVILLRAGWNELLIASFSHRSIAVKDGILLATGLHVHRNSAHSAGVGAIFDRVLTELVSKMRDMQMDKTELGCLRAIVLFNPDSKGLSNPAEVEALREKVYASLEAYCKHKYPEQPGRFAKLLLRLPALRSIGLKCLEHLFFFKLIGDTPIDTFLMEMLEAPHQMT

[8] = molecular target: NR1I2 (nuclear receptor subfamily 1 group I member 2, PXR) (Homo sapiens, UniProt O75469); assay: Selectivity interaction (Reporter gene assay) EUB0000082b NR1I2; parameters: recommended concentration 3 uM; settings: read-out: Fold activation
Chain of NR1I2 (nuclear receptor subfamily 1 group I member 2, PXR) (O75469 whole entry): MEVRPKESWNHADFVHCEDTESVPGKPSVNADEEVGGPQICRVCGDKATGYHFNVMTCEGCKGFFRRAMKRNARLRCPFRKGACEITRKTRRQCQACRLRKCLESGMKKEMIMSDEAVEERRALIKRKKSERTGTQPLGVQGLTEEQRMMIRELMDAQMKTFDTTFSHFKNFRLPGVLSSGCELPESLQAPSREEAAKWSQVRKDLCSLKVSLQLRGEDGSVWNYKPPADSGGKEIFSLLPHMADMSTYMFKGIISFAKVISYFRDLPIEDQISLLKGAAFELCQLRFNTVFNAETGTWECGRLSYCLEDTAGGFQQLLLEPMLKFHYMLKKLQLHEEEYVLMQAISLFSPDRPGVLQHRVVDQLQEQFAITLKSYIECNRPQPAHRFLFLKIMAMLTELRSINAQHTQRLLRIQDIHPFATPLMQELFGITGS

[9] = molecular target: Nuclear receptor subfamily 2 group E member 1 (Homo sapiens) (UniProt Q9Y466); assay: Selectivity interaction (Reporter gene assay) EUB0000082b NR2E1; parameters: recommended concentration 3 uM; settings: screened at recom. conc., Selectivity number of off-targets 2.0, Selectivity number of targets 5.0, Source Knowledge inhouse
[10] = molecular target: T1, Hepatocyte nuclear factor 4-alpha (Homo sapiens); assay: Selectivity interaction (Reporter gene assay) EUB0000082b HNF4A; parameters: recommended concentration 3 uM
[11] = molecular target: T2, Nuclear receptor subfamily 2 group C member 1 (Homo sapiens); assay: Selectivity interaction (Reporter gene assay) EUB0000082b NR2C1; parameters: recommended concentration 3 uM
[12] = molecular target: Nuclear receptor subfamily 4immunitygroup A member 1 (Homo sapiens) (UniProt P22736); assay: Selectivity interaction (Reporter gene assay) EUB0000082b NR4A1; parameters: recommended concentration 3 uM
[13] = molecular target: Steroidogenic factor 1 (Homo sapiens) (UniProt Q13285); assay: Selectivity interaction (Reporter gene assay) EUB0000082b NR5A1; parameters: recommended concentration 3 uM
[14] = molecular target: T3, Alpha trans-inducing protein (Human alphaherpesvirus 1); assay: Selectivity interaction (Reporter gene assay) EUB0000082b UL48; parameters: recommended concentration 3 uM
[15] = molecular target: T4, Retinoic acid receptor RXR-alpha (Homo sapiens); assay: Selectivity interaction (Reporter gene assay) EUB0000082b RXRA; parameters: recommended concentration 3 uM; settings: reference bexarotene 1 uM, Selectivity number of off-targets 0.0, Selectivity number of targets 1.0, Source Knowledge inhouse
[16] = molecular target: T1, Hepatocyte nuclear factor 4-alpha (Homo sapiens); assay: Selectivity interaction (Reporter gene assay) EUB0002359a HNF4A; parameters: recommended concentration 1 uM
[17] = molecular target: T2, Nuclear receptor subfamily 2 group C member 1 (Homo sapiens); assay: Selectivity interaction (Reporter gene assay) EUB0002359a NR2C1; parameters: recommended concentration 1 uM
[18] = molecular target: Nuclear receptor subfamily 2 group E member 1 (Homo sapiens) (UniProt Q9Y466); assay: Selectivity interaction (Reporter gene assay) EUB0002359a NR2E1; parameters: recommended concentration 1 uM
[19] = molecular target: Nuclear receptor subfamily 4immunitygroup A member 1 (Homo sapiens) (UniProt P22736); assay: Selectivity interaction (Reporter gene assay) EUB0002359a NR4A1; parameters: recommended concentration 1 uM
[20] = molecular target: Steroidogenic factor 1 (Homo sapiens) (UniProt Q13285); assay: Selectivity interaction (Reporter gene assay) EUB0002359a NR5A1; parameters: recommended concentration 1 uM
[21] = molecular target: T3, Alpha trans-inducing protein (Human alphaherpesvirus 1); assay: Selectivity interaction (Reporter gene assay) EUB0002359a UL48; parameters: recommended concentration 1 uM
[22] = molecular target: T4, Retinoic acid receptor RXR-alpha (Homo sapiens); assay: Selectivity interaction (Reporter gene assay) EUB0002359a RXRA; parameters: recommended concentration 1 uM; settings: reference bexarotene 1 uM, Selectivity number of off-targets 0.0, Selectivity number of targets 1.0, Source Knowledge inhouse
[23] = molecular target: T5, Bromodomain-containing protein 9 (Homo sapiens, UniProt Q9H8M2); assay: (§1) Selectivity interaction (Bromodomain panel) EUB0000233b BRD9; parameters: recommended concentration 1 uM
T5 sequence (Q9H8M2 whole entry): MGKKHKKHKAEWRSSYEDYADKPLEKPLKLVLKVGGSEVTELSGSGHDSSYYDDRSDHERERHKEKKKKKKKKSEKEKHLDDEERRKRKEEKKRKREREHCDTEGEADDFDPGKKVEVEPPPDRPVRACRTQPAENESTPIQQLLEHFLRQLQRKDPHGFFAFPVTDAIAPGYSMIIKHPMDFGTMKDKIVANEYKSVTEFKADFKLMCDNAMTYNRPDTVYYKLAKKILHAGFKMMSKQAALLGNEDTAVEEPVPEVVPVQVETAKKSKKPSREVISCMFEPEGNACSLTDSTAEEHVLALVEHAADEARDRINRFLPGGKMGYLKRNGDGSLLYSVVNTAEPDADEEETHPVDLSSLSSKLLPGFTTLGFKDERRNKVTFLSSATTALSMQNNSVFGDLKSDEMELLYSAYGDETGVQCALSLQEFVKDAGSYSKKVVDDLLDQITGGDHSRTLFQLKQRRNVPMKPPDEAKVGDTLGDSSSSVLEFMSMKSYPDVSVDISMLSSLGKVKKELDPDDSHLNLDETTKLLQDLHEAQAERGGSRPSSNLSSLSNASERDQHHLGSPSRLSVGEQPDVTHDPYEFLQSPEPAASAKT

[24] = molecular target: T5, Bromodomain-containing protein 9; assay: as §1; parameters: recommended concentration 1 uM; remark: listed apart in the source
[25] = molecular target: T5, Bromodomain-containing protein 9; assay: as §1; parameters: recommended concentration 1 uM; remark: listed apart in the source
[26] = molecular target: cGMP-specific 3',5'-cyclic phosphodiesterase (Homo sapiens) (UniProt O76074); assay: Selectivity interaction (Enzymatic assay) EUB0002694a PDE5A; parameters: recommended concentration 1 uM; settings: at 10 µM
[27] = molecular target: cAMP and cAMP-inhibited cGMP 3',5'-cyclic phosphodiesterase 10A (Homo sapiens) (UniProt Q9Y233); assay: Selectivity interaction (Enzymatic assay) EUB0002694a PDE10A; parameters: recommended concentration 1 uM; settings: at 10 µM
Chain of cAMP and cAMP-inhibited cGMP 3',5'-cyclic phosphodiesterase 10A (Homo sapiens) (Q9Y233 whole entry): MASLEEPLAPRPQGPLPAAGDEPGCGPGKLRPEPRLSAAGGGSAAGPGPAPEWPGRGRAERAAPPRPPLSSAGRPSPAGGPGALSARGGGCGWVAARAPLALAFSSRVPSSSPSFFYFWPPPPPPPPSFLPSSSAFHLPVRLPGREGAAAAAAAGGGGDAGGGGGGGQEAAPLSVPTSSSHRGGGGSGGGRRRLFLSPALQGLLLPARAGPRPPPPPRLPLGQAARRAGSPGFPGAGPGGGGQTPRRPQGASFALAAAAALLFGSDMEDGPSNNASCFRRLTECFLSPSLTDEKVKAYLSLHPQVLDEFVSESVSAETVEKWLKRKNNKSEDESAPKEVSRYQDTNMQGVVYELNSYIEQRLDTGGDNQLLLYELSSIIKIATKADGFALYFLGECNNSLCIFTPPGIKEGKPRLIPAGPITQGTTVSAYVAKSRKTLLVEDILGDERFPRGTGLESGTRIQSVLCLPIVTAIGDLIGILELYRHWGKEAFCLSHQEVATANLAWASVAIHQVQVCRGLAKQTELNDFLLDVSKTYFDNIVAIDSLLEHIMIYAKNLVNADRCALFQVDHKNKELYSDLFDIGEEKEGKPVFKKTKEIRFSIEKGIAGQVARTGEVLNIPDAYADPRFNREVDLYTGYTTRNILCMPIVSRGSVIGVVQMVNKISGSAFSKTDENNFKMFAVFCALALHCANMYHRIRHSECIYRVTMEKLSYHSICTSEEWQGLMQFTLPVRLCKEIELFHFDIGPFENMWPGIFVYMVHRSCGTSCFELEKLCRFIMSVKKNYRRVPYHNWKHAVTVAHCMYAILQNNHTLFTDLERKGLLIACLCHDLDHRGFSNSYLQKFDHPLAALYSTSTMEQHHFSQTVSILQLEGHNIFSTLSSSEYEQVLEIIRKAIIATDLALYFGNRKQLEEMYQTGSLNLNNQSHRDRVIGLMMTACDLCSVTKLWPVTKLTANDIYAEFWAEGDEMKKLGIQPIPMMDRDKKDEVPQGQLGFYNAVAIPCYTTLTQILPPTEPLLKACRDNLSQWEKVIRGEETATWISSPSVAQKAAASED

SMILES: Cc1oc2ccccc2c1Cc1cc(I)c(OCC(=O)O)c(I)c1
- Remaining activity [1]: 0.739
- Fold activation [2]: 1.28
- Remaining activity [3]: 0.732
- Fold activation [4]: 1.02
- Remaining activity [5]: 0.684
- P-value [6]: 0.0128
- Relative activation [7]: 0.91%

SMILES: Fc1ccc(-c2c3cccc(C(F)(F)F)c3nn2Cc2ccc(F)cc2Cl)cc1 [LXR-623]
- fold induction [8]: 2.24
- Fold activation [9]: 1.84
- Fold activation [10]: 0.867
- Fold activation [11]: 1.63
- Fold activation [12]: 1.28
- Remaining activity [13]: 0.876
- P-value [14]: 4.11e-06
- Relative activation [15]: 0.523%

SMILES: CC(C)c1c(CN(C)C(C)Cc2ccccc2)n(C)n(-c2ccccc2)c1=O (configuration not stated)
- Fold activation [16]: 1.15
- Fold activation [17]: 1.13
- Remaining activity [18]: 0.769
- Remaining activity [19]: 0.96
- Fold activation [20]: 1.12
- P-value [21]: 0.00161
- Relative activation [22]: 0.69%

SMILES: CN(C)CCCOc1ccc(-c2cc(NCCCn3cccn3)nc(S(C)(=O)=O)n2)cc1
- pIC50 [23]: 5.85
- pIC50 [24]: 5.85
- pIC50 [25]: 5.85

SMILES: N#Cc1ccc(-c2c3n(c4cccnc24)CCN(C2CC2)C3=O)cc1F
- inhibition [26]: 61.8%
- inhibition [27]: 82.1%

Source: ChEMBL document CHEMBL5715260, “Selectivity Literature for EUbOPEN Chemogenomic Library” (2024)
